Common to all, as to assay: Anti-proliferation assay (ATPLite, 72 h)
On the technique in general: In ATP-based viability assays light output follows the ATP content of the culture.

In assay [1] the test system is H929 multiple myeloma cell line. Type of assay: cell-based, human. On the set-up: key: S = lnfX·lnfY·ΣIdata(Idata−ILoewe), volume over Loewe additivity. The method, then:
(§1) ANBL6 and INA-6 culture media was also supplemented with 10 ng/ml IL-6. […] MM.1S, MM.1R, OCI-ly10, Karpas 422, and SU-DHL6 cells were provided by the Dana Farber Cancer Institute. H929, RPMI-8226, GA-10, and Farage cells were from ATCC (Cat #'s CCL-155, CRL-9068, CRL-2392 and CRL-2630 respectively). MOLP-8, EJM, KSM-12-PE, and OPM2 were from DSMZ. The ANBL6 and INA-6 cell lines were provided by the M. D. Anderson Cancer Research Center. Compounds were prepared in DMSO at 1000× the highest desired concentration. Master plates were generated consisting of serially diluted compounds in 2- or 3-fold dilutions in 384-well format. For single agent dose response curves, the master plates consisted of 9 individual compounds at 12 concentrations in 2- or 3-fold dilutions. For combination matrices, master plates consisted of individual compounds at 6 or 9 concentrations at 2- or 3-fold dilutions. […] To obtain combination data, two master plates were diluted into the assay plates. […] Thirty microliters of ATPLite (Perkin Elmer) at room temperature was then added to each well. […] Measurements were taken at the top of the well using a luminescence aperture and a read time of 0.1 seconds per well. The percent inhibition (% I) for each well was calculated using the following formula: % I=[(avg. untreated wells-treated well)/(avg. untreated wells)]×100. […] Negative inhibition values result from local variations in treated wells as compared to untreated wells. […] The uncertainty of each fitted parameter was estimated from the range over which the change in reduced chi-squared was less than one, or less than minimum reduced chi-squared if that minimum exceeded one, to allow for underestimated σI errors. Single agent curve data were used to define a dilution series for each compound to be used for combination screening in a 6×6 matrix format. […] The Loewe additivity model was used to quantify combination effects. […] A “Synergy Score” was also used, where the Synergy Score S=log fX log fY ΣIdata(Idata-ILoewe), summed over all non-single-agent concentration pairs, and where log fX,Y is the natural logarithm of the dilution factors used for each single agent. This effectively calculates a volume between the measured and Loewe additive response surfaces, weighted towards high inhibition and corrected for varying dilution factors. An uncertainty σS was calculated for each synergy score, based on the measured errors for the Idata values and standard error propagation.

Assay [2] deals with RPMI-8226 multiple myeloma cell line. Type of assay: cell-based, human. On the set-up: key: S = lnfX·lnfY·ΣIdata(Idata−ILoewe), volume over Loewe additivity. On the procedure: as §1
The test system of assay [3] is human multiple myeloma cells (MM.1S). Type of assay: cell-based. The conditions noted are these: for inhibition at 0.256 µM / inhibition at 0.767 µM / inhibition at 2.3 µM / inhibition at 6.9 µM / inhibition at 20.7 µM: Homo sapiens, MM1.S, read-out: percent inhibition of ATP in MM.1S cells; for inhibition at 0.256 µM: Papaverine 0.256 μM; for inhibition at 0.767 µM: Papaverine 0.767 μM; for inhibition at 2.3 µM: Papaverine 2.3 μM; for inhibition at 6.9 µM: Papaverine 6.9 μM; for inhibition at 20.7 µM: Papaverine 20.7 μM. More on the design: key to synergy score / synergy (score), PDEi × HE-NECA: S = lnfX·lnfY·ΣIdata(Idata−ILoewe), volume over Loewe additivity. The method, then:
as §1

For assay [4], the system named is human multiple myeloma cells (MM.1R). In kind it is cell-based. More on the design: key: S = lnfX·lnfY·ΣIdata(Idata−ILoewe), volume over Loewe additivity. The method, then: as §1
Where [5] appears, read: PDE inhibitor crossed with (S) ENBA, H929.
The mark [6] stands for this setting: PDE inhibitor crossed with ADAC, H929.
Setting [7] is: PDE inhibitor crossed with Chloro-IB-MECA, H929.
Setting [8] is: PDE inhibitor crossed with HE-NECA, H929.
[9] abbreviates: in combination with adenosine receptor agonist ADAC, H929.
[10] abbreviates: in combination with adenosine receptor agonist ADAC, RPMI-8226.
Setting [11] is: 10 ng/mL IL-6, HE-NECA conc. (μM).
[12] abbreviates: PDE inhibitor crossed with (S) ENBA, MM.1S.
[13] abbreviates: PDE inhibitor crossed with ADAC, MM.1S.
Setting [14] is: PDE inhibitor crossed with Chloro-IB-MECA, MM.1S.
Where [15] appears, read: PDE inhibitor crossed with HE-NECA, MM.1S.
Setting [16] is: in combination with adenosine receptor agonist ADAC, MM.1S.
The mark [17] stands for this setting: in combination with adenosine receptor agonist ADAC, MM.1R.

Where a name gives a salt, the structure may show the parent alone. Read-outs that look alike come from different tables or passages of the source.

Regarding `COc1ccc(Cc2nccc3cc(OC)c(OC)cc23)cc1OC` [Papaverine hydrochloride, 1-[(3.4-dimethoxyphenyl)-methyl]-6,7-dimethoxyisoquinolone], the synergy score is 0.77 in assay [1] (setting [5]); 1.19 in assay [1] (setting [6]); 1.42 in assay [1] (setting [7]); 1.03 in assay [1] (setting [8]); 1.193 in assay [1] (setting [9]); 1.025 in assay [1] (in combination with adenosine receptor agonist HE-NECA, H929). Moreover, the synergy score in assay [2] (setting [10]) was 1.158; in assay [2] (in combination with adenosine receptor agonist HE-NECA, RPMI-8226), 0.3933; in assay [3] (setting [12]), 2.24; in assay [3] (setting [13]), 3.55; in assay [3] (setting [14]) it was 2.67; in assay [3] (setting [15]), 2.09. Besides, the synergy score in assay [3] (setting [16]) was determined as 3.554; in assay [3] (in combination with adenosine receptor agonist HE-NECA, MM.1S), 2.087; in assay [4] (setting [17]), 3.395; in assay [4] (in combination with adenosine receptor agonist HE-NECA, MM.1R), 2.128. In addition, the inhibition – broadly, the relative decrease from the control value, in per cent – at 0.256 µM in assay [3] (setting [11]) was -2.4%; in assay [3] (no IL-6, HE-NECA conc. (nM)) it was 9.1%. The inhibition at 0.767 µM was -0.1% in assay [3] (setting [11]) and 8.8% in assay [3] (no IL-6, HE-NECA conc. (nM)). Further, the inhibition at 2.3 µM turned out to be 7.9% in assay [3] (setting [11]) and 23% in assay [3] (no IL-6, HE-NECA conc. (nM)). The inhibition at 6.9 µM in assay [3] (setting [11]) was found to be 46%; in assay [3] (no IL-6, HE-NECA conc. (nM)), 46%. For the same compound, the inhibition at 20.7 µM in assay [3] (setting [11]) turned out to be 70%; in assay [3] (no IL-6, HE-NECA conc. (nM)) it was 68%.
As to `OCCN(CCO)c1nc(N2CCCCC2)c2nc(N(CCO)CCO)nc(N3CCCCC3)c2n1` [Dipyridamole, 2-{[9-(bis(2-hydroxyethyl)amino)-2,7-bis(1-piperidyl)-3,5,8,10-tetrazabicyclo[4.4.0]deca-2,4,7,9,11-pentaen-4-yl]-(2-hydroxyethyl)amino}ethanol], the synergy score worked out at 0.26 in assay [1] (setting [5]); 2.05 in assay [1] (setting [6]); 0.08 in assay [1] (setting [7]); 0.13 in assay [1] (setting [8]); 2.05 in assay [1] (setting [9]); 0.62 in assay [2] (setting [10]). Besides, the synergy score in assay [3] (setting [12]) was determined as 0.17; in assay [3] (setting [13]) it was 1.18; in assay [3] (setting [14]), 0.20; in assay [3] (setting [15]) it was 0.08; in assay [3] (setting [16]), 1.18; in assay [4] (setting [17]), 1.34.
For `CC(C)C(=O)c1c(C(C)C)nn2ccccc12` [Ibudilast, 1-(2-isopropyl-pyrazolo[1,5-a]pyridine-3-yl)-2-methylpropan-1-one], the synergy score is reported as 0.21 in assay [1] (setting [5]); 1.04 in assay [1] (setting [6]); 0.32 in assay [1] (setting [7]); 0.32 in assay [1] (setting [8]); 1.76 in assay [1] (in combination with adenosine receptor agonist CGS-21680, H929); 1.08 in assay [1] (in combination with adenosine receptor agonist regadenoson, H929). Besides, the synergy score is listed as 0.47 in assay [2] (in combination with adenosine receptor agonist CGS-21680, RPMI 8226); 0.29 in assay [2] (in combination with adenosine receptor agonist regadenoson, RPMI 8226); 0.55 in assay [3] (setting [12]); 0.23 in assay [3] (setting [13]); 0.74 in assay [3] (setting [14]); 0.98 in assay [3] (setting [15]). The synergy score is 2.22 in assay [3] (in combination with adenosine receptor agonist CGS-21680, MM.1S); 0.37 in assay [3] (in combination with adenosine receptor agonist regadenoson, MM.1S); 2.29 in assay [4] (in combination with adenosine receptor agonist CGS-21680, MM.1R); 1 in assay [4] (in combination with adenosine receptor agonist regadenoson, MM.1R).

The values above are taken from patent US20090047243A1, “COMBINATIONS FOR THE TREATMENT OF B-CELL PROLIFERATIVE DISORDERS” (priority 2007, published 2009).
